Test results reported in ChEMBL document CHEMBL1201862, “PubChem BioAssay data set” (2004).
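Following 48 hours of exposure in 96-well plates, responses at five concentrations were used to interpolate endpoints linearly. GI50 is the concentration that inhibits growth by half.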 Active and inactive are the calls of the source. Rule as the data show it: active = GI50 up to about 1.1 µM and inactive = higher.

Experiments:
Test in all cases: NCI anticancer screen, dose series, 48 h
SK-MEL-28 = tested on: SK-MEL-28
NCI-H23 = tested on: NCI-H23
A498 = tested on: A498
KM12 = tested on: KM12
BT-549 = tested on: BT-549
HCC 2998 = tested on: HCC 2998
OVCAR-8 = tested on: OVCAR-8
TK-10 = tested on: TK-10
HCT-116 = tested on: HCT-116
SF-295 = tested on: SF-295
MDA-N = tested on: MDA-N
DMS-273 = tested on: DMS-273
SF-539 = tested on: SF-539
COLO 205 = tested on: COLO 205
Malme-3M = tested on: Malme-3M
CCRF-CEM = tested on: CCRF-CEM
OVCAR-5 = tested on: OVCAR-5
UACC-62 = tested on: UACC-62
ACHN = tested on: ACHN
RPMI-8226 = tested on: RPMI-8226

Measured: GI50

COc1ccc2nc3cc(Cl)ccc3c(NCCCN(CCCl)CCCl)c2c1
active: SK-MEL-28 197 nM | NCI-H23 11.6 nM | A498 16.3 nM | KM12 52 nM | BT-549 129 nM | HCC 2998 59.6 nM | OVCAR-8 12.5 nM | TK-10 452 nM | HCT-116 12 nM | SF-295 14.2 nM | MDA-N 31.8 nM | DMS-273 16.1 nM | SF-539 11.1 nM | COLO 205 < 10 nM | Malme-3M 84.1 nM | CCRF-CEM < 10 nM | OVCAR-5 34 nM | UACC-62 15.6 nM | ACHN < 10 nM | RPMI-8226 < 10 nM
